How the values were obtained:
mice [1] = assay: Spontaneous locomotor activity; format: in vivo; details: 20 min observation
Protocol: The tests were performed on male white mice of the Albino Swiss strain, whose weight was between 24 and 30 g in Experimental Medicine Center, Medical University of Lublin, Poland. The animals were housed (four/five per cage). Before conducting the experimental tests, the animals were subjected to an adaptation that lasted seven days. This consisted of keeping them in a room with relatively constant conditions: a temperature of 22 ± 1 °C, a humidity of 55 ± 5% and lighting that mimicked the natural day and night rhythm (12 h/12 h). Constant access to food and water was provided. Standard feed—LSM Motycz pelleted feed—and tap water were used. Mice were randomly allocated to study groups. Each group was represented by 8–10 animals, depending on the research schedule. The experiments were performed according to the procedures set out in the regulations for animal experiments: National Institute of Health Guidelines for the Care and Use of Laboratory Animals (8th edition) and to the European Community Council Directive for the Care and Use of Laboratory Animals of 22 September 2010 (2010/63/EU). The study was approved by the Local Ethical Committee in Lublin (number of ethical approvals: 27/2023). Tested compounds: FG‐1, FG‐4, FG‐5, FG‐6, FG‐7, FG‐8, and FG‐18 were finely ground in mortars with the addition of the emulsifier Tween‐80. A suspension was obtained, which was then diluted with aqueous solution of 0.5% methylcellulose (tylose). The mixture was then administered intraperitoneally (i.p.) to the animals 60 min before the start of the experiments. Animals in the control groups received a 0.5% tylose solution. All substances were administered via the same route of administration in appropriate dose and volume of 0.1 mL per 10 g of animal body weight. Prior to the administration of the drug, the animals were weighed, during the interval between tests, they were provided with food, water, and constant living conditions.
An Opto‐Varimex‐4 Auto‐Track animal activity meter (Columbus Instruments, USA) was used to study animal movement, which consists of eight transparent cages with lids measuring 43 × 43 × 32 cm, a set of four infrared transmitters (each transmitter has 16 laser beams) and four detectors to monitor animal movements. Testing was initiated 60 min after compound administration. For the spontaneous locomotor activity study, tylose was administered to the control group and the tested compounds. For the amphetamine‐induced or MK‐801‐induced hyperactivity tests, tylose, the tested compounds and after 30 min, amphetamine (3 mg kg^−1) or MK‐801 (0.3 mg kg^−1) were administered. While the test was being performed, animals were individually caged, initially for 5 min of adaptation, followed by 20 min of actual mobility testing.

mice [2] = assay: Novel object recognition (NOR) test; format: in vivo; details: doses of 30 and 15 mg kg^−1 i.p. 60 min prior to first trial
Protocol: The tests were performed on male white mice of the Albino Swiss strain, whose weight was between 24 and 30 g in Experimental Medicine Center, Medical University of Lublin, Poland. The animals were housed (four/five per cage). Before conducting the experimental tests, the animals were subjected to an adaptation that lasted seven days. This consisted of keeping them in a room with relatively constant conditions: a temperature of 22 ± 1 °C, a humidity of 55 ± 5% and lighting that mimicked the natural day and night rhythm (12 h/12 h). Constant access to food and water was provided. Standard feed—LSM Motycz pelleted feed—and tap water were used. Mice were randomly allocated to study groups. Each group was represented by 8–10 animals, depending on the research schedule. […]
The setup for the NOR test consisted of a square, open‐ended Plexiglas box (46 cm long × 35 cm high × 33 cm wide), with a 10‐lux light source suspended 50 cm above it. […] The duration of exploration of each object at T1, T2, and T3 was manually recorded using a stopwatch. The discrimination between F and N during T2 or T3 was assessed by comparing the time spent exploring each of them. Memory performance was assessed using the DI, calculated as (N − F)/ (N + F), representing the difference in exploration time between N and F, normalized by the total exploration time for both objects. […]

[3] = 15 mg kg^−1 i.p. 60 min before test
[4] = 30 mg/kg i.p. 60 min before test

Row | Structure (SMILES) | spontaneous locomotor activity (mice [1]; [3]) | spontaneous locomotor activity (mice [1]; [4]) | NOR test, memory consolidation expressed by the discrimination index (DI) (mice [2])
1 | O=C(NCCCN1CCN(c2ccc(C3=NCCS3)cc2)CC1)c1ccncc1 [FG‐6, N‐(3‐(4‐(4‐(4,5‐dihydrothiazol‐2‐yl) phenyl) piperazin‐1‐yl) propyl) isonicotinamide] | did not change the motility of mice | significant decrease in spontaneous locomotor activity | –
2 | O=C1C2C3C=CC(C3)C2C(=O)N1OCCCN1CCN(c2ccccc2C2=NCCS2)CC1 (centres unmarked) [FG‐7, 2‐(3‐(4‐(2‐(4,5‐dihydrothiazol‐2‐yl) phenyl) piperazin‐1‐yl) propoxy)‐3a,4,7,7a‐tetrahydro‐1 H‐4,7‐methanoisoindole‐1,3(2 H)‐dione] | did not change the motility of mice | significant decrease in spontaneous locomotor activity | showed activity in the novel object recognition (NOR) test
